Measured values taken from patent EP0561913B1, “USE OF PYRIDINE DERIVATIVES IN THE TREATMENT OF OCULAR HYPERTENSION” (ALLERGAN, INC., priority 1990, dated 1992).
Entries after “also recorded” stand apart in the source; their conditions may differ. Read-outs that look alike come from different tables or passages of the source. Each block holds one compound with its values, some of them ahead of it.

How the values were obtained:
rabbits [1] = assay: In vivo study of intraocular pressure reducing activity, intracameral injection
Procedure: (§1) Pyridine-1,2,3,6-tetrahydro-5-(5-isoxazolyl)-1-methyl-ethanedioate ("test compound") or pilocarpine were applied either topically into the eyes of owl monkeys (200 µg in 10 µl) or intracamerally into the eye of rabbits (10 µg in 20 µl). Control animals were treated with a saline vehicle. Pupil diameter and IOP were measured for 0-6 hours. IOP was measured using pneumatometer (Digilab/ Biorad) and pupil diameter was measured using Optistick ruler (Allergan). Animals used in these studies had normal intraocular pressure.
(§2) Muscarinic activity was determined by treatment with atropine (muscarinic antagonist). In rabbits 5 µg atropine was coinjected with the test compounds and in owl monkey 5 µg atropine (10 µl) was applied 30 minutes before treatment with the test compound.
(§3) Intraocular pressure (mmHg) or pupil diameter (mm) were expressed as changes from time 0.

owl monkeys [2] = assay: In vivo study of intraocular pressure reducing activity, topical application
Procedure: as §1, §2, §3

rabbits [3] = assay: Pupil diameter (miosis), intracameral injection
Procedure: as §1, §2, §3

owl monkeys [4] = assay: Pupil diameter (miosis), topical application
Procedure: as §1, §2, §3

[5] = system: cat ciliary smooth muscle; assay: In vitro contraction of isolated ciliary smooth muscle in organ bath; format: cell-based; details: for EC50: cumulative dose response, 37°C, read-out: ED50 (concentration that caused 50% of maximum contraction)
Procedure: (§4) Iris sphincter and ciliary smooth muscles were excised from freshly enucleated cat eyes. The tissues were placed in an organ bath containing Tyrode's solution (composition in mM: NaCl 137, KCl 2.7, CaCl2 1.8, MgCl2 1.05, NaHCO3 11.9, NaH2PO4 0.42, D-glucose 5.6) at 37°C, aerated with 95% oxygen and 5% carbon dioxide. One end of the tissue was fastened to a hook in the bath and the other end was attached to a force displacement transducer connected to a polygraph. The tissues were allowed to equilibrate for 60 minutes under a load of 100-200 mg tension. […] Increasing concentrations of the test compound (0.1 - 1000 µM) were then added into the bath to generate cumulative dose response. […] Results were from three or more experiments expressed as mean ± S.E.

[6] = system: cat iris sphincter smooth muscle; assay: In vitro contraction of isolated iris sphincter smooth muscle in organ bath; format: cell-based; details: for EC50: cumulative dose response, 37°C, read-out: ED50 (concentration that caused 50% of maximum contraction)
Procedure: as §4

rabbits [7] = details: normotensive rabbits or humans, from literature; cited from earlier work
[8] = topical 5 µg/10 µl atropine, test compound 200 µg/10 µl

Compound: CN1[C@@H]2CC[C@H]1C[C@@H](OC(=O)C(CO)c1ccccc1)C2 (some centres unmarked) [atropine]
inhibition of IOP effect of the test compound by atropine (rabbits [1]; rabbits, 5 µg/20 µl atropine coinjected with test compound 10 µg/20 µl): partial inhibition
inhibition of IOP effect of the test compound by atropine (rabbits [1]; rabbits, topical 0.5% atropine solution every 2 hours (data not shown)): no inhibitory effect
inhibition of IOP reducing effect of the test compound by atropine (owl monkeys [2]; [8]): no inhibitory effect
inhibition of miotic effect of the test compound by atropine (rabbits [3]; 5 µg atropine with test compound 10 µg/20 µl intracameral): completely inhibited
inhibition of miotic effect of the test compound by atropine (owl monkeys [4]; [8]): completely inhibited
inhibition of test compound-induced contraction by atropine ([5]; 10 nM atropine for 30 minutes before test compound): competitive inhibition
effect of atropine in inhibiting the response of the iris relative to the ciliary ([6]; 10 nM atropine, iris versus ciliary muscle): 2.5 times
inhibition of test compound-induced contraction by atropine ([6]; cat iris sphincter muscle, 10 nM atropine for 30 minutes before test compound): competitive inhibition

EC50 ([5]; Felis catus): 4 µM
EC50 ([6]; Felis catus, cat iris sphincter muscle): 4 µM
Compound: CC[C@@H]1C(=O)OC[C@@H]1Cc1cncn1C [pilocarpine, (3S,4R)-3-ethyl-4-{(1-methyl-1H-imidazol-5-yl)methyl}-3,4-dihydro-2(3H)-furanone]
effect on IOP (rabbits [1]; normotensive rabbits, intracameral 10 µg/20 µl, result in words): no hypotensive effect; also recorded: slight hypertensive action
decrease in IOP (owl monkeys [2]; topical 200 µg/10 µl, at 3 hours, effect decreased thereafter): about 3 mmHg
decrease in IOP (rabbits [7]): little or no decrease

miosis (rabbits [3]; intracameral 10 µg/20 µl, effect of pilocarpine greater than that of the test compound): caused miosis
time of maximum miotic response (rabbits [3]; intracameral 10 µg/20 µl, followed by recovery): 0.5 h
miosis, decrease in pupil size (owl monkeys [4]; topical 200 µg/10 µl, at 1 hour): 48%
miosis, recovered to % of 0 time (owl monkeys [4]; topical 200 µg/10 µl, within 3 to 6 hours): 15%
EC50 [5]: 30 µM
EC50 ([6]; cat iris sphincter muscle): 20 µM
Compound: CN1CCC=C(c2ccno2)C1.O=C(O)C(=O)O [test compound, Pyridine-1,2,3,6-tetrahydro-5-(5-isoxazolyl)-1-methyl-ethanedioate]
decrease in IOP (rabbits [1]; normotensive rabbits, intracameral 10 µg/20 µl, 5 hours after administration, change from time 0): 6 mmHg
duration of IOP decreasing activity (rabbits [1]; rabbits, intracameral 10 µg/20 µl, experimental period ended at 6 hours): > 6 h
maximum decrease in IOP (owl monkeys [2]; topical 200 µg/10 µl, after 5 and 6 hours): 4 mmHg
duration of IOP reducing effect (owl monkeys [2]; topical 200 µg/10 µl, experimental period of 6 hours): > 6 h
